Assay results as given in patent US10358449B2, “Xanthine derivative” (priority 2015, dated 2019).
Like-named read-outs stand apart in the source and are kept apart here.

What was measured:
[1] = target: humanized recombinant DPP8 (Homo sapiens (Human), UniProt Q6V1X1); test: Drug selectivity experiment in vitro, DPP8; format: biochemical
CYP2D6 = CYP2D6 (Homo sapiens (Human), UniProt P10635); test: biochemical; format: in vitro ADME
Method: 1. Test method: human liver microsomes were used to carry out inhibition activity test of the compounds to CYP enzyme. With the system for incubating human liver microsomes in vitro, the content variation of phenacetin, diclofenac, S-mephenytoin, dextromethorphan and midazolam, which were substrates of human liver microsomes CYP1A2, CYP2C9, CYP2C19, CYP2D6, CYP3A4, were measured simultaneously by cocktail probe drug method (which is a disclosed technology), the effects of TSL-0319 under different concentrations on activity of human liver microsomes CYP1A2, CYP2C9, CYP2C19, CYP2D6, CYP3A4 subtypes are evaluated and relevant IC50 was measured.

[2] = Pharmacokinetics experiments in CD-1 mice; format: in vivo, mouse; conditions: for concentration at 0.5 h: 0.500 h; for MRT last: read-out: MRT0-last; for concentration at 0.25 h: 0.250 h; for Plasma drug concentration (ng/ml): LLOQ 3 ng/ml
Method: Six healthy CD-1 mice of 7-10 weeks old were randomly separated into two groups. 2 mg/kg and 5 mg/kg TSL-0319 were administrated respectively by intravenous injection and by gavage (2 mg/ml for intravenous injection, made into transparent solution with solution of DMSO/PEG400/H2O=20/60/20; 5 mg/ml for gavage; made into transparent solution with solution of PEG400 (Tween80/H2O=40/10/50); fasting for 12 hours but free drinking before administration; blood was taken from the great saphenous vein or submaxillary veins by time points (time points for taking blood of intravenous injection: 0 h, 0.0833 h, 0.250 h, 0.500 h, 1.00 h, 2.00 h, 4.00 h, 8.00 h, 12.00 h and 24.00 h; time points for taking blood of gavage: 0 h, 0.250 h, 0.50 h, 1.00 h, 2.00 h, 4.00 h, 8.00 h, 12.00 h and 24.0 h) before and after administration, lower limit of quantitation, LLOQ was set at 3 ng/ml.

[3] = CD-1, mouse, plasma, oral, gavage 5 mg/kg, read-out: Plasma drug concentration
[4] = CD-1, mouse, plasma, po, gavage 5 mg/kg
[5] = CD-1, mouse, plasma, intravenous injection 2 mg/kg
[6] = CD-1, mouse, plasma, intravenous injection 2 mg/kg, read-out: Plasma drug concentration

CYP2D6, sequence (P10635 whole entry): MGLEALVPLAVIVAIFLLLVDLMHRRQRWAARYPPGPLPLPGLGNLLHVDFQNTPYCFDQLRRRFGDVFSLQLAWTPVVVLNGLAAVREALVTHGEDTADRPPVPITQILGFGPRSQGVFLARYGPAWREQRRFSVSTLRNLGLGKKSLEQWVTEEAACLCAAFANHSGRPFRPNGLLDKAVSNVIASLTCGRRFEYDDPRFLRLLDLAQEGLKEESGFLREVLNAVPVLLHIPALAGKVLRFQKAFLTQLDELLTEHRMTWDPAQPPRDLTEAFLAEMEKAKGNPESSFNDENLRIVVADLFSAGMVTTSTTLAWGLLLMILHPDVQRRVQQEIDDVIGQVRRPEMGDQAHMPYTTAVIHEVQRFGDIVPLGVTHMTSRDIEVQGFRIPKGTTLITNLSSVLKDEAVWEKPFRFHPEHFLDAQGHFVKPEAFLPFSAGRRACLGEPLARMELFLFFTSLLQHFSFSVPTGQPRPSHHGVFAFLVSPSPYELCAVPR
humanized recombinant DPP8, sequence (Q6V1X1 whole entry): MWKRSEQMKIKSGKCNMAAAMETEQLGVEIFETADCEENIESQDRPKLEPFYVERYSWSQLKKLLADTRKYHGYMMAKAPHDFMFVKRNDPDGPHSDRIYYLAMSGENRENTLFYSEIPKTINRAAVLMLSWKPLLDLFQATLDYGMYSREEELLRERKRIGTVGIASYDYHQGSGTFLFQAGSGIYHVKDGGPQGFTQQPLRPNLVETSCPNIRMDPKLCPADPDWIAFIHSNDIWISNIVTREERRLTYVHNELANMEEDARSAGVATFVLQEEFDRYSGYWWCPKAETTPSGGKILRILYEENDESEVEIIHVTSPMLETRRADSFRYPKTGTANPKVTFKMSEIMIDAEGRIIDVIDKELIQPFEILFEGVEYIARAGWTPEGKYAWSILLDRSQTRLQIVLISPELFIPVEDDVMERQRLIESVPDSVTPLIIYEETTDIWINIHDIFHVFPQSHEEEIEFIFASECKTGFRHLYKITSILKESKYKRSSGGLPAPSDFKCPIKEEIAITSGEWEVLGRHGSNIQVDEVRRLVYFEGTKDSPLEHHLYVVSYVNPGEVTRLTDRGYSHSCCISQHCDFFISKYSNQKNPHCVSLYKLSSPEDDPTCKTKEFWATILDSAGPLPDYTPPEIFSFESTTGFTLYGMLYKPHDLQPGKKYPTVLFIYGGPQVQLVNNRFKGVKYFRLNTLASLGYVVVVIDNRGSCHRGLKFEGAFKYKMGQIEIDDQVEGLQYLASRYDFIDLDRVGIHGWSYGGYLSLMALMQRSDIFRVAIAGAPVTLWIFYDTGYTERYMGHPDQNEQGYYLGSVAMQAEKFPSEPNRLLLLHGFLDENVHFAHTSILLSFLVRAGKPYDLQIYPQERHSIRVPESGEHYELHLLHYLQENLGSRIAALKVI

In the case of `CC#CCn1c(N2CCC[C@@H](N)C2)nc2c1c(=O)n(Cc1nccnc1C#N)c(=O)n2C` [Compound I-3, 1-[(3-cyano-pyrazine-2-yl)methyl]-3-methyl-7-(2-butyne-1-yl)-8-[(R)-3-amino-piperidine-1-yl]-xanthine], the IC50 [1] is reported as > 100 µM, the “Selectivity (DPP8 column)” value ([1]; DPP8 versus DPP4) is reported as > 1250000 and the “inhibition effect to DPP8” value ([1]; in words) is reported as “no inhibition effect”. The IC50 (CYP2D6) was > 50 µM, the inhibition at 0.05 µM (CYP2D6; human, microsomes) was 0% and the inhibition at 0.15 µM (CYP2D6; human, microsomes) was 0%. The inhibition at 0.5 µM (CYP2D6; human, microsomes) was 0%, the inhibition at 1.5 µM (CYP2D6; human, microsomes) was 0% and the inhibition at 5 µM (CYP2D6; human, microsomes) was 0%. The inhibition at 15 µM (CYP2D6; human, microsomes) was 3%, the inhibition at 50 µM (CYP2D6; human, microsomes) was 14.6% and the Cmax ([2]; CD-1, mouse, blood, oral, dosage 5 mg/kg, read-out: Cmax in mice) was 200 to 500 nM. For the same compound, the concentration at 0.5 h [2, 3] was 123 ± 30.2 ng/mL, the concentration at 1 h [2, 3] was 183 ± 19.1 ng/mL and the concentration at 2 h [2, 3] was 211 ± 83 ng/mL. The concentration at 4 h [2, 3] was 145 ± 40.9 ng/mL, the concentration at 8 h ([2]; CD-1, mouse, plasma, oral, gavage 5 mg/kg, 8.00 h, read-out: Plasma drug concentration) was 8.03 ± 3.71 ng/mL and the AUC(0-inf) [2, 4] was 858 ± 185 ng·h/mL. The AUC(0-t) [2, 4] was 844 ± 181 ng·h/mL, the Tmax [2, 4] was 1.33 ± 0.577 h and the half-life [2, 4] was 1.37 ± 0.317 h. For the same compound, the MRT inf ([2]; CD-1, mouse, plasma, po, gavage 5 mg/kg, read-out: MRT0-inf) was 3 ± 0.111 h, the MRT last [2, 4] was 2.87 ± 0.0589 h and the AUC(0-inf) [2, 5] was 567 ± 56.1 ng·h/mL. The AUC(0-t) [2, 5] was 555 ± 54.7 ng·h/mL, the clearance [2, 5] was 59.1 ± 5.63 mL/min/kg and the concentration at 0.25 h [2, 6] was 529 ± 93.4 ng/mL. It also gave a concentration at 0.5 h [2, 6] of 344 ± 32.7 ng/mL, a concentration at 1 h [2, 6] of 161 ± 21.2 ng/mL and a concentration at 2 h [2, 6] of 47.5 ± 13.6 ng/mL. The concentration at 4 h [2, 6] was 11.9 ± 2.24 ng/mL, the MRT ([2]; CD-1, mouse, plasma, intravenous injection 2 mg/kg, read-out: MRT0-int) was 0.953 ± 0.123 h and the MRT last [2, 5] was 0.836 ± 0.0919 h. The Vd ([2]; CD-1, mouse, plasma, intravenous injection 2 mg/kg, read-out: Vdss) was 3.41 ± 0.745 L/kg, the “Plasma drug concentration (ng/ml)” value ([2]; gavage 5 mg/kg, 12.00 h) was “BQL” and the “Plasma drug concentration (ng/ml)” value ([2]; gavage 5 mg/kg, 24.00 h) was “BQL”. For the same compound, the “Plasma drug concentration (ng/ml)” value ([2]; intravenous injection 2 mg/kg, 8.00 h) was “BQL”, the “Plasma drug concentration (ng/ml)” value ([2]; intravenous injection 2 mg/kg, 12.00 h) was “BQL” and the “Plasma drug concentration (ng/ml)” value ([2]; intravenous injection 2 mg/kg, 24.00 h) was “BQL”. It also gave a bioavailability ([2]; mouse, plasma, oral, gavage 5 mg/kg versus intravenous 2 mg/kg, CD-1 mice) of 60.5%, a concentration at 0.25 h ([2]; mouse, plasma, oral, gavage 5 mg/kg, CD-1 mice, read-out: Plasma drug concentration) of 48 ± 27.9 ng/mL and a Cmax ([2]; mouse, plasma, po, gavage 5 mg/kg, CD-1 mice, read-out: Cmax) of 223 ± 68.1 ng/mL. It also gave a half-life ([2]; mouse, plasma, intravenous injection 2 mg/kg, CD-1 mice) of 1.09 ± 0.623 h and a concentration at 0.5 min ([2]; mouse, plasma, intravenous injection 2 mg/kg, CD-1 mice, 0.5 min, read-out: Plasma drug concentration) of 759 ± 133 ng/mL.
